In PubChem BioAssay (NCI) one finds TGI data, which are given here for 11 compounds.

Common to all, as to test: NCI-60 cell line screen, 48 h
Test [1] deals with A549 NSCLC.
Test [2] has as its system CAKI-1 renal.
For test [3], the system named is CCRF-CEM leukemia.
In test [4] the test system is HCC-2998 colon.
In test [5] the test system is HCT-116 colon.
Test [6] relates to HL-60(TB) leukemia.
The subject of test [7] is KM12 colon.
For test [8], the system named is LOX IMVI melanoma.
Test [9] relates to MALME-3M melanoma.
In test [10] the test system is MDA-MB-231 breast.
For test [11], the system named is NCI-H226 lung.
Test [12] deals with NCI/ADR-RES ovarian.
Test [13] deals with OVCAR-3 ovarian.
Test [14] has as its system OVCAR-4 ovarian.
The subject of test [15] is OVCAR-5 ovarian.
The subject of test [16] is PC-3 prostate.
The test system of test [17] is SK-OV-3 ovarian.
Test [18] deals with TK-10 renal.
Test [19] concerns U251 CNS.

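1) Cells in 96-well plates. 2) Compound, 48 h, 5 concentrations. 3) Linear interpolation between surrounding doses. 4) Unreached endpoint = highest concentration. TGI is the concentration that stops growth completely.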

On to `c1ccc(-c2nnc(-c3ccccn3)c3c2C[C@@H]2C[C@@H]4Cc5c(-c6ccccn6)nnc(-c6ccccn6)c5[C@@H]4[C@H]32)nc1`, for which the TGI in test [1] is over 100 µM; in test [2] it was over 100 µM; in [3] it was over 100 µM; in test [4] it was over 100 µM; in test [5] it was over 100 µM; in test [6], 58.8 µM. Besides, the TGI in [7], in [8], in test [9], in test [10], in test [11] and in test [12] was over 100 µM throughout. Moreover, the TGI in test [13], in [14], in test [15], in test [16], in test [17] and in [18] was over 100 µM throughout. The TGI in test [19] came out at 89.1 µM.

As to `COC(=O)C1=C(C)NC(C)=C(C(=O)OC)C1c1ccccc1NO`, the TGI in test [1] is over 100 µM; in test [2], over 100 µM; in test [3], over 100 µM; in test [4], over 100 µM; in [5] it was 48.2 µM; in test [6], over 100 µM. In addition, the TGI in test [7], in [8], in test [9], in test [10], in [11] and in test [12] was over 100 µM each time. For the same compound, the TGI in test [13], in test [14], in [15], in [16], in test [17] and in [18] was over 100 µM each time. The compound further gave a TGI in test [19] of over 100 µM.

Regarding `Cc1ccc2nc3c(=O)[nH]c(=O)nc-3n(C)c2c1C`, the TGI in [1], in test [2], in [3], in test [4], in test [5] and in [6] was over 100 µM each time. The TGI in test [7], in test [8], in test [9], in test [10], in test [11] and in test [12] was over 100 µM each time. For the same compound, the TGI in test [13], in test [14], in test [15], in [16], in [17] and in test [18] was over 100 µM each time. The TGI in test [19] was over 100 µM.

Turning to `CC[C@@]1(O)C(=O)OCc2c1cc1n(c2=O)Cc2c-1nc1ccccc1c2/C=N\NC(=O)C(N)CO` (some centres undefined), the TGI in test [1] is over 100 µM; in [2], over 27.2 µM; in test [3], over 19.7 µM; in [4], over 100 µM; in test [5], 22.8 µM; in test [6], over 21 µM. Also, the TGI in test [7] was over 44 µM; in [8] it was 6.15 µM; in [9] it was over 100 µM; in [10], over 100 µM; in test [11] it was 23.2 µM; in [12], 9.2 µM. For the same compound, the TGI in test [13], in test [14], in test [15], in test [16], in [17] and in test [18] was over 100 µM each time. This compound also came in with a TGI in test [19] of over 20.9 µM.

On to `COc1ccc(/C=C2\CCC(CNc3ccc(S(N)(=O)=O)cc3)C2=O)cc1` (centres undefined), for which the TGI in test [1] was over 100 µM; in test [2], 19.3 µM; in test [3], 5.98 µM; in test [4], over 100 µM; in [5], 22.9 µM; in test [6], 7.73 µM. The TGI in [7] is 31.3 µM; in test [8] it was 23.8 µM; in test [9], 36 µM; in test [10] it was 35.5 µM; in test [11], over 100 µM; in test [12] it was over 100 µM. In addition, the TGI in [13] was 22.7 µM; in [14] it was over 81.2 µM; in test [15] it was 42.6 µM; in [16], 42.2 µM; in [17], over 100 µM; in test [18] it was 34.9 µM. For the same compound, in [19], the TGI turned out to be 39.2 µM.

With `OC1c2ccccc2CC12Cc1ccccc1C2` (centres undefined), the TGI in [1], in test [2], in test [3], in [4], in test [5] and in [6] was over 100 µM each time. Also, the TGI in test [7] is over 100 µM; in [8] it was over 100 µM; in test [9], over 100 µM; in [10] it was over 100 µM; in [11], 25.1 µM; in test [12], over 100 µM. In addition, the TGI in [13], in test [14], in [15], in test [16], in test [17] and in test [18] was over 100 µM in each case. Besides, the TGI in test [19] was over 100 µM.

Turning to `Fc1ccc(C(OCCN2CCN(CCCCl)CC2)c2ccc(F)cc2)cc1`, the TGI was over 100 µM in [1]; over 100 µM in test [2]; over 100 µM in test [3]; 42.5 µM in [4]; 46.6 µM in test [5]; 25.6 µM in test [6]. In addition, the TGI in test [7] turned out to be 38 µM; in test [8], 32.9 µM; in test [9], 31.8 µM; in test [10], 75.5 µM; in test [11] it was 40.9 µM; in test [12] it was 70.8 µM. Moreover, the TGI in [13] was 74.9 µM; in test [14], 81.5 µM; in test [15], 63.9 µM; in test [16], over 100 µM; in test [17], over 100 µM; in [18], over 100 µM. Also, in [19], the TGI is over 100 µM.

Take `C[C@]12CC[C@@H]3c4ccc(O)cc4CC[C@H]3[C@@H]1CC[C@@H]2OP(=O)(O)O`: the TGI in test [1], in test [2], in test [3], in [4], in [5] and in test [6] was over 100 µM each time. The TGI in test [7], in test [8], in test [9], in test [10], in [11] and in [12] was over 100 µM in each case. In addition, the TGI in test [13], in test [14], in test [15], in test [16], in test [17] and in test [18] was over 100 µM throughout. Also, the TGI in [19] is over 100 µM.

For the compound `N=C(N)C1CN(CCCCCCCCCCN2CC(C(=N)N)C(=O)NC2=O)C(=O)NC1=O` (centres undefined), the TGI in test [1], in test [2], in [3], in test [4], in [5] and in [6] was over 10 µM in each case. Besides, the TGI in [7], in test [8], in test [9], in test [10], in test [11] and in test [12] was over 10 µM throughout. Also, the TGI in [13], in test [14], in test [15], in test [16], in [17] and in test [18] was over 10 µM throughout. Moreover, the TGI in test [19] is over 10 µM.

For the compound `O=C1/C(=c2\s/c(=C\c3ccccc3)c(=O)n2-c2ccccc2)SC(=S)N1c1ccccc1`, the TGI in test [1], in [2], in test [3], in [4], in test [5] and in test [6] was over 100 µM each time. In addition, the TGI in [7] is over 100 µM; in [8], over 100 µM; in test [9], over 100 µM; in test [10], 57.1 µM; in [11], 89.4 µM; in test [12], 96.8 µM. Moreover, the TGI was 88.8 µM in test [13]; over 100 µM in [14]; over 100 µM in test [15]; over 100 µM in test [16]; 52.1 µM in [17]; over 100 µM in test [18]. The same compound displayed a TGI in [19] of 81.1 µM.

On to `O=C1NCC(CSc2nc3cc(C4CCCc5c4[nH]c4ccccc54)ccc3o2)N1` (centres undefined), for which the TGI in test [1], in test [2], in test [3], in [4], in test [5] and in test [6] was over 100 µM throughout. Also, the TGI in [7], in [8], in test [9], in test [10], in test [11] and in test [12] was over 100 µM each time. Further, the TGI in [13], in test [14], in [15], in test [16], in [17] and in test [18] was over 100 µM throughout. This compound yielded a TGI in test [19] of over 100 µM.
